Experimental data as given in the CheMixHub viscosity set.

Assay: xn = mol fraction of the nth substance listed

C1CCOC1 + O
Conditions | viscosity [mPa·s]
298 K, 101 kPa, x2 = 0.217 | 0.5842
298 K, 101 kPa, x2 = 0.284 | 0.6433
298 K, 101 kPa, x2 = 0.331 | 0.6715
298 K, 101 kPa, x2 = 0.3845 | 0.7352
298 K, 101 kPa, x2 = 0.4994 | 0.9349
298 K, 101 kPa, x2 = 0.6293 | 1.22
298 K, 101 kPa, x2 = 0.8001 | 1.681
298 K, 101 kPa, x2 = 0.8523 | 1.745
298 K, 101 kPa, x2 = 0.9073 | 1.658
298.15 K, 101 kPa, x1 = 0.02 | 1.157
298.15 K, 101 kPa, x1 = 0.05 | 1.464
298.15 K, 101 kPa, x1 = 0.07 | 1.62
298.15 K, 101 kPa, x1 = 0.1001 | 1.749
298.15 K, 101 kPa, x1 = 0.1199 | 1.79
298.15 K, 101 kPa, x1 = 0.1499 | 1.796
298.15 K, 101 kPa, x1 = 0.1699 | 1.783
298.15 K, 101 kPa, x1 = 0.2 | 1.723
298.15 K, 101 kPa, x1 = 0.2199 | 1.671
298.15 K, 101 kPa, x1 = 0.25 | 1.586
298.15 K, 101 kPa, x1 = 0.2701 | 1.538
298.15 K, 101 kPa, x1 = 0.3002 | 1.445
298.15 K, 101 kPa, x1 = 0.3499 | 1.313
298.15 K, 101 kPa, x1 = 0.3999 | 1.172
298.15 K, 101 kPa, x1 = 0.4499 | 1.039
298.15 K, 101 kPa, x1 = 0.5001 | 0.9437
298.15 K, 101 kPa, x1 = 0.5998 | 0.7744
298.15 K, 101 kPa, x1 = 0.7001 | 0.65
298.15 K, 101 kPa, x1 = 0.8001 | 0.5622
298.15 K, 101 kPa, x1 = 0.9 | 0.4979
298.15 K, 101 kPa, x2 = 0.31 | 0.6564
298.15 K, 101 kPa, x2 = 0.5 | 0.9237
298.15 K, 101 kPa, x2 = 0.63 | 1.224
298.15 K, 101 kPa, x2 = 0.68 | 1.399
298.15 K, 101 kPa, x2 = 0.73 | 1.49
298.15 K, 101 kPa, x2 = 0.77 | 1.582
298.15 K, 101 kPa, x2 = 0.8 | 1.678
298.15 K, 101 kPa, x2 = 0.83 | 1.701
298.15 K, 101 kPa, x2 = 0.86 | 1.732
298.15 K, 101 kPa, x2 = 0.9 | 1.68
298.15 K, 101 kPa, x2 = 0.94 | 1.49
298.15 K, 101 kPa, x2 = 0.97 | 1.202
298.15 K, 101.32 kPa, x1 = 0.0423 | 1.362
298.15 K, 101.32 kPa, x1 = 0.0812 | 1.647
298.15 K, 101.32 kPa, x1 = 0.1809 | 1.741
298.15 K, 101.32 kPa, x1 = 0.3559 | 1.285
298.15 K, 101.32 kPa, x1 = 0.5248 | 0.892
298.15 K, 101.32 kPa, x1 = 0.7342 | 0.638
298.15 K, 101.32 kPa, x1 = 0.8468 | 0.554
298.15 K, 101.32 kPa, x2 = 0.0008 | 0.47
298.15 K, 101.33 kPa, x2 = 0.111 | 0.515
298.15 K, 101.33 kPa, x2 = 0.197 | 0.565
298.15 K, 101.33 kPa, x2 = 0.3027 | 0.65
298.15 K, 101.33 kPa, x2 = 0.4036 | 0.763
298.15 K, 101.33 kPa, x2 = 0.5028 | 0.916
298.15 K, 101.33 kPa, x2 = 0.6047 | 1.129
298.15 K, 101.33 kPa, x2 = 0.7032 | 1.394
298.15 K, 101.33 kPa, x2 = 0.8017 | 1.651
298.15 K, 101.33 kPa, x2 = 0.9013 | 1.665
303.15 K, 101 kPa, x1 = 0.02 | 1.025
303.15 K, 101 kPa, x1 = 0.05 | 1.276
303.15 K, 101 kPa, x1 = 0.07 | 1.398
303.15 K, 101 kPa, x1 = 0.1001 | 1.514
303.15 K, 101 kPa, x1 = 0.1199 | 1.549
303.15 K, 101 kPa, x1 = 0.1499 | 1.558
303.15 K, 101 kPa, x1 = 0.1699 | 1.55
303.15 K, 101 kPa, x1 = 0.2 | 1.504
303.15 K, 101 kPa, x1 = 0.2199 | 1.466
303.15 K, 101 kPa, x1 = 0.25 | 1.395
303.15 K, 101 kPa, x1 = 0.2701 | 1.358
303.15 K, 101 kPa, x1 = 0.3002 | 1.281
303.15 K, 101 kPa, x1 = 0.3499 | 1.174
303.15 K, 101 kPa, x1 = 0.3999 | 1.056
303.15 K, 101 kPa, x1 = 0.4499 | 0.9408
303.15 K, 101 kPa, x1 = 0.5001 | 0.8597
303.15 K, 101 kPa, x1 = 0.5998 | 0.7127
303.15 K, 101 kPa, x1 = 0.7001 | 0.6034
303.15 K, 101 kPa, x1 = 0.8001 | 0.5252
303.15 K, 101 kPa, x1 = 0.9 | 0.4699
303.15 K, 101.33 kPa, x1 = 0.0971 | 1.444
303.15 K, 101.33 kPa, x1 = 0.1497 | 1.523
303.15 K, 101.33 kPa, x1 = 0.2011 | 1.477
303.15 K, 101.33 kPa, x1 = 0.3057 | 1.257
303.15 K, 101.33 kPa, x1 = 0.3979 | 1.04
303.15 K, 101.33 kPa, x1 = 0.4978 | 0.8602
303.15 K, 101.33 kPa, x1 = 0.6026 | 0.7189
303.15 K, 101.33 kPa, x1 = 0.7025 | 0.6137
303.15 K, 101.33 kPa, x1 = 0.8003 | 0.5413
303.15 K, 101.33 kPa, x1 = 0.8978 | 0.4813
308.15 K, 101 kPa, x1 = 0.02 | 0.9079
308.15 K, 101 kPa, x1 = 0.05 | 1.124
308.15 K, 101 kPa, x1 = 0.07 | 1.227
308.15 K, 101.33 kPa, x1 = 0.0971 | 1.256
308.15 K, 101.33 kPa, x1 = 0.1497 | 1.329
308.15 K, 101.33 kPa, x1 = 0.2011 | 1.301
308.15 K, 101.33 kPa, x1 = 0.3057 | 1.12
308.15 K, 101.33 kPa, x1 = 0.3979 | 0.9414
308.15 K, 101.33 kPa, x1 = 0.4978 | 0.7881
308.15 K, 101.33 kPa, x1 = 0.6026 | 0.6666
308.15 K, 101.33 kPa, x1 = 0.7025 | 0.5723
308.15 K, 101.33 kPa, x1 = 0.8003 | 0.5085
308.15 K, 101.33 kPa, x1 = 0.8978 | 0.4554
313.15 K, 101.33 kPa, x1 = 0.1497 | 1.171
313.15 K, 101.33 kPa, x1 = 0.2011 | 1.154
313.15 K, 101.33 kPa, x1 = 0.3057 | 1.01
313.15 K, 101.33 kPa, x1 = 0.3979 | 0.8555
313.15 K, 101.33 kPa, x1 = 0.4978 | 0.724
313.15 K, 101.33 kPa, x1 = 0.6026 | 0.6175
313.15 K, 101.33 kPa, x1 = 0.7025 | 0.5361
313.15 K, 101.33 kPa, x1 = 0.8003 | 0.4788
313.15 K, 101.33 kPa, x1 = 0.8978 | 0.4306
318.15 K, 101.33 kPa, x1 = 0.0971 | 0.9839
318.15 K, 101.33 kPa, x1 = 0.1497 | 1.041
318.15 K, 101.33 kPa, x1 = 0.2011 | 1.037
318.15 K, 101.33 kPa, x1 = 0.3057 | 0.9172
318.15 K, 101.33 kPa, x1 = 0.3979 | 0.7829
318.15 K, 101.33 kPa, x1 = 0.4978 | 0.6687
318.15 K, 101.33 kPa, x1 = 0.6026 | 0.576
318.15 K, 101.33 kPa, x1 = 0.7025 | 0.5036
318.15 K, 101.33 kPa, x1 = 0.8003 | 0.452
318.15 K, 101.33 kPa, x1 = 0.8978 | 0.4089
323.15 K, 101.33 kPa, x1 = 0.0971 | 0.8801
323.15 K, 101.33 kPa, x1 = 0.1497 | 0.9355
323.15 K, 101.33 kPa, x1 = 0.2011 | 0.9367
323.15 K, 101.33 kPa, x1 = 0.3057 | 0.8382
323.15 K, 101.33 kPa, x1 = 0.3979 | 0.7216
323.15 K, 101.33 kPa, x1 = 0.4978 | 0.621
323.15 K, 101.33 kPa, x1 = 0.6026 | 0.5365
323.15 K, 101.33 kPa, x1 = 0.7025 | 0.4716
323.15 K, 101.33 kPa, x1 = 0.8003 | 0.4277
323.15 K, 101.33 kPa, x1 = 0.8978 | 0.3879
